For data set [1], the system named is ABUTH—Velvetleaf (Abutilon theophrasti). Kind of data set: General postemergence herbicidal activity, velvetleaf. The class given is in vivo. The conditions noted are these: post-emergence, 336 h, post-emergent, rate 140 g ai/ha, visual score after 14 days (0 no injury, 100 complete kill), read-out: % Growth Reduction ABUTH. The procedure:
(§1) Seeds or nutlets of the desired test plant species were planted in Sun Gro MetroMix® 306 planting mixture, which typically has a pH of 6.0 to 6.8 and an organic matter content of about 30 percent, in plastic pots with a surface area of 64 square centimeters. When required to ensure good germination and healthy plants, a fungicide treatment and/or other chemical or physical treatment was applied. The plants were grown for 7-21 days in a greenhouse with an approximate 15 hour photoperiod which was maintained at about 23-29° C. during the day and 22-28° C. during the night. Nutrients and water were added on a regular basis and supplemental lighting was provided with overhead metal halide 1000-Watt lamps as necessary. The plants were employed for testing when they reached the first or second true leaf stage.
(§2) A weighed amount, determined by the highest rate to be tested, of each test compound was placed in a 25 mL glass vial and was dissolved in 4 mL of a 97:3 v/v (volume/volume) mixture of acetone and dimethyl sulfoxide (DMSO) to obtain concentrated stock solutions. […] The concentrated stock solutions obtained were diluted with 20 mL of an aqueous mixture containing acetone, water, isopropyl alcohol, DMSO, Atplus 411F crop oil concentrate, and Triton X-155 surfactant in a 48.5:39:10:1.5:1.0:0.02 v/v ratio to obtain spray solutions containing the highest application rates. Additional application rates were obtained by serial dilution of 12 mL of the high rate solution into a solution containing 2 mL of 97:3 v/v (volume/volume) mixture of acetone and DMSO and 10 mL of an aqueous mixture containing acetone, water, isopropyl alcohol, DMSO, Atplus 411F crop oil concentrate, and Triton X-155 surfactant in a 48.5:39:10:1.5:1.0:0.02 v/v ratio to obtain ½X, ¼X, ⅛X and 1/16X rates of the high rate. Compound requirements are based upon a 12 mL application volume at a rate of 187 L/ha. Formulated compounds were applied to the plant material with an overhead Mandel track sprayer equipped with 8002E nozzles calibrated to deliver 187 L/ha over an application area of 0.503 square meters at a spray height of 18 inches […] above the average plant canopy height. Control plants were sprayed in the same manner with the solvent blank.
(§3) The treated plants and control plants were placed in a greenhouse as described above and watered by sub-irrigation to prevent wash-off of the test compounds. After 14 days, the condition of the test plants as compared with that of the untreated plants was determined visually and scored on a scale of 0 to 100 percent where 0 corresponds to no injury and 100 corresponds to complete kill.

The subject of data set [2] is CIRAR—Canada thistle (Cirsium arvense). Kind of data set: General postemergence herbicidal activity, Canada thistle. It is filed as in vivo. The conditions noted are these: post-emergence, 336 h, post-emergent, rate 140 g ai/ha, visual score after 14 days (0 no injury, 100 complete kill), read-out: % Growth Reduction CIRAR. The method, then: as §1, §2, §3
Data set [3] deals with ECHCG—Barnyardgrass (Echinochloa crus-galli). The experiment in a line: General postemergence herbicidal activity, barnyardgrass. The class given is in vivo. The conditions noted are these: post-emergence, 336 h, post-emergent, rate 140 g ai/ha, visual score after 14 days (0 no injury, 100 complete kill), read-out: % Growth Reduction ECHCG. The method, then:
as §1, §2, §3

Data set [4] concerns POLCO—Wild buckwheat (Polygonum convolvulus). Kind of data set: General postemergence herbicidal activity, wild buckwheat. Conditions: Fallopia convolvulus, post-emergence, 336 h; post-emergent, rate 140 g ai/ha, visual score after 14 days (0 no injury, 100 complete kill); read-out: % Growth Reduction POLCO. The class given is in vivo. The procedure:
as §1, §2, §3

Data set [5] has as its system ABUTH—Velvetleaf (Abutilon theophrasti). The experiment in a line: General preemergence herbicidal activity, velvetleaf. The class given is in vivo. The conditions noted are these: pre-emergent, rate 140 g ai/ha, visual score after 20-22 days (0 no injury, 100 complete kill or no emergence), read-out: % Growth Inhibition ABUTH. From the text:
(§4) Seeds of the desired test plant species were planted in a soil matrix prepared by mixing a loam soil (43 percent silt, 19 percent clay, and 38 percent sand, with a pH of about 8.1 and an organic matter content of about 1.5 percent) and sand in a 70 to 30 ratio. The soil matrix was contained in plastic pots with a surface area of 113 square centimeters. When required to ensure good germination and healthy plants, a fungicide treatment and/or other chemical or physical treatment was applied. A weighed amount, determined by the highest rate to be tested, of each test compound was placed in a 25 mL glass vial and was dissolved in 6 mL of a 97:3 v/v (volume/volume) mixture of acetone and DMSO to obtain concentrated stock solutions. […] The stock solutions obtained were diluted with 18 mL of a 0.1% v/v aqueous solution of Tween® 20 surfactant to obtain spray solutions containing the highest application rate. Additional application rates were obtained by serial dilution of 12 mL of the high rate solution into a solution containing 3 mL of 97:3 v/v mixture of acetone and DMSO and 9 mL of the 0.1% v/v aqueous solution of Tween® 20 surfactant to obtain 1⁄2X, 1⁄4X, 1⁄8X and 1/16X rates of the high rate. Compound requirements are based upon a 12 mL application volume at a rate of 187 L/ha. Formulated compounds were applied to the plant material with an overhead Mandel track sprayer equipped with […] nozzles calibrated to deliver 187 L/ha over an application area of 0.503 square meters at a spray height of 18 inches (43 cm) above the soil surface. Control plants were sprayed in the same manner with the solvent blank. The treated pots and control pots were placed in a greenhouse maintained with an approximate 15 hour photoperiod and temperatures of about 23-29° C. during the day and 22-28° C. during the night. Nutrients and water were added on a regular basis and supplemental lighting was provided with overhead metal halide 1000-Watt lamps as necessary. The water was added by top-irrigation. After 20-22 days, the condition of the test plants that germinated and grew as compared with that of the untreated plants that emerged and grew was determined visually and scored on a scale of 0 to 100 percent where 0 corresponds to no injury and 100 corresponds to complete kill or no emergence.

For data set [6], the system named is SORVU—Common sorghum (Sorghum vulgare). Kind of data set: General preemergence herbicidal activity, common sorghum. It is filed as in vivo. Conditions: pre-emergent, rate 140 g ai/ha, visual score after 20-22 days (0 no injury, 100 complete kill or no emergence), read-out: % Growth Inhibition SORVU.
Text: as §4

In a further data set the test system is ZEAMX—Corn (Zea mays). Kind of data set: General preemergence herbicidal activity, corn. It is filed as in vivo. The conditions noted are these: pre-emergent, rate 140 g ai/ha, visual score after 20-22 days (0 no injury, 100 complete kill or no emergence), read-out: % Growth Inhibition ZEAMX.
Text: as §4

The test system of data set [7] is CHEAL—Common lambsquarters (Chenopodium album). The experiment in a line: General preemergence herbicidal activity, common lambsquarters. The class given is in vivo. Conditions: pre-emergent, rate 140 g ai/ha, visual score after 20-22 days (0 no injury, 100 complete kill or no emergence), read-out: % Growth Inhibition CHEAL.
Text: as §4

As for `COC(=O)c1nc(-c2cc(F)c(C)cc2F)nc(N)c1Cl` [Compound 8, 6-Amino-5-chloro-2-(2,5-difluoro-4-methylphenyl)pyrimidine-4-carboxylic acid methyl ester], the pest or weed control at 140 g/ha in data set [1] worked out at 95%; in data set [2] it was 45%; in data set [3] it was 0%; in data set [4] it was 60%.
As to `COC(=O)c1nc(-c2cc(Cl)c(Cl)cc2F)nc(N)c1Cl` [Compound 10, 6-Amino-5-chloro-2-(4,5-dichloro-2-fluorophenyl)pyrimidine-4-carboxylic acid methyl ester], the values for the pest or weed control at 140 g/ha in [1], in [2] and in data set [4] were 90%, 95% and 100%, respectively.
On to `Nc1nc(-c2cc(Cl)c(Cl)cc2F)nc(C(=O)O)c1Cl` [Compound 17, 6-Amino-5-chloro-2-(4,5-dichloro-2-fluorophenyl)pyrimidine-4-carboxylic acid], for which the pest or weed control at 140 g/ha was 85% in data set [1], 90% in data set [2] and 95% in data set [4].
As for `CCOC(=O)c1nc(-c2ccc(Cl)cc2F)nc(N)c1Cl` [Compound 19, 6-Amino-5-chloro-2-(4-chloro-2-fluorophenyl)pyrimidine-4-carboxylic acid ethyl ester], the melting point was in the range of 131 to 132 °C. Further, the pest or weed control at 140 g/ha in data set [1] was 99%. Moreover, the pest or weed control at 140 g/ha in data set [2] was determined as 95%. The pest or weed control at 140 g/ha in data set [3] came out at 80%. For the same compound, the pest or weed control at 140 g/ha in data set [4] was found to be 100%.
Compound `COC(=O)c1nc(-c2ccc(Cl)c(F)c2F)nc(N)c1Cl` [Compound 2, 6-Amino-5-chloro-2-(4-chloro-2,3-difluorophenyl)pyrimidine-4-carboxylic acid methyl ester] showed a melting point of 187 to 189 °C. Besides, the pest or weed control at 140 g/ha in data set [1] was 100%. For the same compound, the pest or weed control at 140 g/ha in [2] is 100%. For the same compound, the pest or weed control at 140 g/ha in data set [3] was determined as 95%. Moreover, the pest or weed control at 140 g/ha in [4] amounted to 100%.
On to `COC(=O)c1nc(-c2cc(F)c(Cl)cc2F)nc(N)c1Cl` [Compound 20, 6-Amino-5-chloro-2-(4-chloro-2,5-difluorophenyl)-pyrimidine-4-carboxylic acid methyl ester], for which the pest or weed control at 140 g/ha in [1] was 99%; in data set [2], 95%; in data set [3], 95%; in data set [4] it was 100%.
Turning to `COC(=O)c1nc(-c2ccc(C)c(F)c2F)nc(N)c1Cl` [Compound 4, 6-Amino-5-chloro-2-(2,3-difluoro-4-methylphenyl)pyrimidine-4-carboxylic acid methyl ester], the pest or weed control at 140 g/ha in data set [1] was 99%; in data set [2], 60%; in data set [3] it was 90%; in data set [4], 80%.
For `COC(=O)c1nc(-c2ccc(C(F)(F)F)cc2F)nc(N)c1Cl` [Compound 5, 6-Amino-5-chloro-2-(2-fluoro-4-trifluoromethylphenyl)pyrimidine-4-carboxylic acid methyl ester], the pest or weed control at 140 g/ha in data set [1] was determined as 70%; in [2] it was 85%; in data set [3], 0%; in data set [4], 80%.
For the compound `COC(=O)c1nc(-c2ccc(C(F)F)cc2F)nc(N)c1Cl` [Compound 9, 6-Amino-5-chloro-2-(4-difluoromethyl-2-fluorophenyl)pyrimidine-4-carboxylic acid methyl ester], the pest or weed control at 140 g/ha in [1] was 45%; in data set [2] it was 40%; in [3] it was 0%; in [4], 35%.
As for `Cc1ccc(-c2nc(N)c(Cl)c(C(=O)O)n2)c(F)c1` [Compound 13, 6-Amino-5-chloro-2-(2-fluoro-4-methylphenyl)pyrimidine-4-carboxylic acid], the inhibition at 140 g/ha in [5] was 95%; in data set [6], 50%; in the data set on ZEAMX—Corn (Zea mays) it was 10%; in data set [7], 95%.
In the case of `COC(=O)c1nc(-c2ccc(C(F)(F)F)c(F)c2F)nc(N)c1Cl` [Compound 6, 6-Amino-5-chloro-2-(2,3-difluoro-4-trifluoromethylphenyl)pyrimidine-4-carboxylic acid methyl ester], the pest or weed control at 140 g/ha came to 90% in [1], 80% in data set [2], 25% in data set [3] and 95% in [4].
The compound `COC(=O)c1nc(-c2ccc(Cl)cc2F)nc(N)c1Cl` [Compound 1, 6-Amino-5-chloro-2-(4-chloro-2-fluorophenyl)pyrimidine-4-carboxylic acid methyl ester] had a melting point of 194 to 196 °C. Further, in data set [1], the pest or weed control at 140 g/ha was 100%. Besides, in [2], the pest or weed control at 140 g/ha is 100%. In addition, the pest or weed control at 140 g/ha in [3] came out at 90%. For the same compound, the pest or weed control at 140 g/ha in [4] came out at 95%.
With `Cc1cc(F)c(-c2nc(N)c(Cl)c(C(=O)O)n2)cc1F` [Compound 18, 6-Amino-5-chloro-2-(2,5-difluoro-4-methylphenyl)pyrimidine-4-carboxylic acid], the pest or weed control at 140 g/ha in data set [1] amounted to 100%; in data set [2] it was 100%; in data set [3], 75%; in data set [4], 40%.

These data come from patent US8598085B2, “2-(2-fluoro-substituted phenyl)-6-amino-5-chloro-4-pyrimidinecarboxylates and their use as herbicides” (Dow AgroSciences LLC, priority 2007, dated 2013).
